From patent US20240041838A1, “METHODS AND COMPOSITIONS FOR INHIBITION OF NEUTROPHIL RECRUITMENT IN MYCOCARDIAL ISCHEMIA-REPERFUSION INJURY” (University of Connecticut, priority 2022, published 2024)
Read-outs that look alike come from different tables or passages of the source.

Tests used:
[1] = test system: IL-8-induced Ca^2+ signal in neutrophils; assay: intracellular Ca2+ flux by Fluo-4 time-resolved flow cytometry; assay type: cell-based, human; details: 10 μM, RT 1 hour; 1 μg·mL^−1 IL-8
Procedure: To monitor the dynamics of intracellular calcium (Ca^2+) flux, neutrophils (2×10^6 cells·mL^−1 in RPMI-1640 without phenol red plus 2% HSA) were incubated with Fluo-4 (4 μg·mL^−1) for one hour at RT. After washes, neutrophils were resuspended in RPMI-1640 without phenol red plus 2% HSA and assessed by an LSRII analyzer (BD Biosciences, San Jose, CA). One minute after analyzing, 1 μg·mL^−1 IL-8 was added to the cells. Cells were put back into the analyzer for another 9 minutes. The curves showing the dynamics of intracellular Ca^2+ flux (FIG. 2H) were generated by FlowJo software (version 10.6). The quantification of Fluo-4 MFI (FIG. 2I) was analyzed by FlowJo software (version 10.6) and obtained from three individual experiments.

[2] = test system: human neutrophils; assay: total ROS production of isolated human neutrophils after PMA; assay type: cell-based; details: 10 μM; after 50 min of 100 nM PMA; ICAM-1-coated wells
Procedure: ROS production of isolated human neutrophils was quantified by using the Total ROS Assay kit from Invitrogen. A black, clear bottom, non-treated 96-well plate was used in this assay. Before the assay, the 96-well plate was coated with 10 μg·mL^−1 human ICAM-1-Fc at RT for 2 hours and washed twice with PBS. […] After centrifuging at 300×g, RT for 2 min, cells were resuspended at 10^6 cells·mL^−1 in the ROS Assay Stain Solution from the kit and incubated with 2 μg·mL^−1 mouse anti-human CD18 blocking mAb (TS1/18 to block neutrophil adhesion) or isotype control at RT for 10 min. The 100 μL·well^−1 neutrophils (3 replicates per group) were seeded into the ICAM-1-coated 96-well plate. The background ROS before stimulation was measured by Cytation 1 Cell Imaging Multi-Mode Reader (Filter set: Green, Ex: 485/20 nm, Em: 528/20 nm, BioTek, Santa Clara, CA). Then 100 nM PMA was added to each well, and ROS production was measured by Cytation 1 Cell Imaging Multi-Mode Reader every 5 minutes.

[3] = test system: human neutrophils; assay: neutrophil viability by flow cytometry (Ghost Dye Blue 516); assay type: cell-based; details: 100 μM Nexinhib20, one hour at room temperature
Procedure: After washes, neutrophils were incubated with Ghost Dye Blue 516 at RT for 15 minutes. After washes, cell fluorescence was assessed with an LSRII (BD Biosciences, San Jose, CA) and analyzed with FlowJo software (version 10.6).

[4] = test system: Rac-1 activation in HL60-CXCR2 or HL60 cells; assay: Rac-1-GTP pull-down and western blot in HL60 / HL60-CXCR2 cells; assay type: cell-based; details: 10 μM, RT 1 hour
Procedure: The HL60 cells and CXCR2-expressing HL60 cells (HL60-CXCR2)(50) were gifts from Dr. Orion D. Weiner at the University of California San Francisco and Dr. Ann Richmond at the Vanderbilt University School of Medicine, respectively. HL60-CXCR2 cells were selected with G418 ([…]) to maintain CXCR2 expression. Cells were maintained in culture medium (RPMI-1640, 10% FBS, 100 μg·mL^−1 penicillin, 100 μg·mL^−1 streptomycin, and 250 ng·mL^−1 amphotericin B) at 37° C. and 5% CO2. In most experiments, cells were differentiated with 1.3% DMSO for 7 days before assays. Cells were checked monthly for mycoplasma infection using the e-Myco plus Mycoplasma PCR Detection Kit.
After washes, cells were resuspended in RPMI-1640 without phenol red (10^7 cells·mL^−1) and incubated with or without stimulators (100 nM fMLP for HL60, 1 μg·mL^−1 IL-8 for HL60-CXCR2) at RT for 1 minute. Cells were lysed by 1:1 addition of 2× Triton X-100 lysis buffer (final concentration: 1% Triton X-100, 50 mM HEPES pH 7.0, 150 mM NaCl, 10% glycerol, 1.5 mM MgCl2, 1 mM EGTA, 1 mM sodium orthovanadate, 1 mM phenylmethylsulfonyl fluoride, plus protease inhibitor mixture—one Pierce protease inhibitor mini-tablet per 5 mL 2× buffer) on ice for 5 minutes. After centrifuging at 16,000×g, 4° C. for 8 minutes, supernatants were saved as protein samples.

[5] = test system: human neutrophils; details: 1 and 4 hours of incubation; previous study; cited from earlier work
[6] = test system: β2 integrins on human neutrophils; assay: flow cytometry of β2 integrin activation and exocytosis (mAb24, KIM127, TS1/18) after IL-8; assay type: cell-based; details: for inhibition at 10 µM: Homo sapiens, Neutrophil
Procedure: To monitor the dynamics of β2 integrin activation, 400 μL of 2.5×10^5 cells·mL^−1 neutrophils were assessed by an LSRII analyzer (BD Biosciences, San Jose, CA) for 10 s. After adding 0.5 μg·mL^−1 AF488-conjugated mAb24 and DL550-conjugated KIM127 (final concentration), cells were put back into the analyzer for another 5 minutes. Then, after adding 1 μg·mL^−1 IL-8, cells were put back into the analyzer for another 10 minutes. The curves showing the dynamics of integrin activation (FIGS. 2A, 2B) were generated by FlowJo software (version 10.6). The antibody specificities were validated in our previous study using β2 integrin knockout cells and β2-integrin-activation-deficient talin-1 knockout cells. Compensations were performed before all experiments.
To quantify the percentage of mAb24 and KIM127 epitopes and assess inhibition of β2 integrin exocytosis, pan-CD18 […] TS1/18, which has the same isotype (mouse IgG1) as mAb24 and KIM127, was used. […] Neutrophils were mixed with unconjugated mAb24 (1 μg·mL^−1), KIM127 (1 μg·mL^−1), […] (1 μg·mL^−1), or mouse IgG1 isotype control (1 μg·mL^−1), and incubated with 1 μg·mL^−1 IL-8 at RT for 10 min. After incubation, neutrophils were fixed by 1% PFA at 4° C. for 10 min. After two washes with PBS, cells were incubated with APC-conjugated rat anti-mouse IgG1 secondary mAb (1 μg·mL^−1) at RT for 10 min. After two washes with PBS, cell fluorescence was assessed with an LSRII (BD Biosciences, San Jose, CA) and analyzed with FlowJo software (version 10.6). The quantifications of mAb24, KIM127, TS1/18, and isotype mean fluorescence intensities (MFI) (FIGS. 2C-2E) were analyzed by FlowJo software (version 10.6) and obtained from six replicates. MFI of isotype controls was subtracted as background signal. Since mAb24, KIM127, and TS1/18 are all IgG1 isotypes and we used the same secondary antibody, the percentage of high-affinity and extended β2 integrins (FIGS. 2F and 2G) can be calculated by dividing the MFI of mAb24 and KIM127 by the MFI of TS1/18.

Compound: CC(C)(C)C(=O)/C(=C\c1cccc([N+](=O)[O-])c1)n1cncn1 [Nexinhib20, 4,4-dimethyl-1-(3-nitrophenyl)-2-(1H-1,2,4-triazol-1-yl)-1-penten-3-one]
- IL-8-induced Ca^2+ signal (Fluo-4) [1]: potently blocked
- total ROS production [2]: significantly reduced
- neutrophil viability [3]: ~100%
- IL-8-induced increase of Rac-1-GTP ([4]; HL60-CXCR2 cells, IL-8 1 μg·mL^−1, 1 minute, increase about 80% without drug): eliminated these increases
- fMLP-induced increase of Rac-1-GTP ([4]; HL60 cells, fMLP 100 nM, 1 minute, increase about 50% without drug): eliminated these increases
- cell death compared to DMSO vehicle controls [5]: did not induce a significant increase in cell death
- β2 integrin exocytosis (total CD18 surface expression, TS1/18) ([6]; 10 μM, RT 1 hour, 10 min 1 μg·mL^−1 IL-8): inhibited significantly
- percentage of high-affinity β2 integrins (mAb24 MFI/TS1/18 MFI) ([6]; 10 μM, 10 min after IL-8): reduced the percentage of high-affinity
- inhibition at 10 µM ([6]; RT 1 hour, 10 min 1 μg·mL^−1 IL-8, read-out: inhibition of IL-8-induced elevation of KIM127 (extended β2 integrins)): ~20%
- inhibition at 10 µM ([6]; RT 1 hour, 10 min 1 μg·mL^−1 IL-8, read-out: inhibition of IL-8-induced elevation of mAb24 (high-affinity β2 integrins)): ~75%
